Experimental data from PubChem BioAssay (NCI).
Values joined by “and” are separate entries in the source; they are usually repeats but may differ in a detail not shown here. Equal entries are not always repeated.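 Method: 48-hour compound exposure of cells in 96-well plates, five concentrations, linear interpolation of endpoints. At the GI50, growth is halved. TGI marks complete inhibition of growth.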

Experiments:
Assay in all cases: inhibition of tumour cell growth, NCI panel, 48 h
MCF7 breast = test system: MCF7 breast
SF-295 CNS = test system: SF-295 CNS
SNB-19 CNS = test system: SNB-19 CNS
ACHN renal = test system: ACHN renal
HOP-92 NSCLC = test system: HOP-92 NSCLC
OVCAR-4 ovarian = test system: OVCAR-4 ovarian
OVCAR-3 ovarian = test system: OVCAR-3 ovarian
786-0 renal = test system: 786-0 renal
OVCAR-5 ovarian = test system: OVCAR-5 ovarian
PC-3 prostate = test system: PC-3 prostate

Structure (SMILES) | GI50 (MCF7 breast) | TGI (MCF7 breast) | GI50 (SF-295 CNS) | TGI (SF-295 CNS) | GI50 (SNB-19 CNS) | TGI (SNB-19 CNS) | GI50 (ACHN renal) | TGI (ACHN renal) | GI50 (HOP-92 NSCLC) | TGI (HOP-92 NSCLC) | GI50 (OVCAR-4 ovarian) | TGI (OVCAR-4 ovarian) | GI50 (OVCAR-3 ovarian) | TGI (OVCAR-3 ovarian) | GI50 (786-0 renal) | TGI (786-0 renal) | GI50 (OVCAR-5 ovarian) | TGI (OVCAR-5 ovarian) | GI50 (PC-3 prostate) | TGI (PC-3 prostate)
CC[C@@H](C)/C=C(C)/C=C/C(=O)c1c(O)c(-c2ccc(O)cc2)cn(OC2CC(=O)CCC(C)OC(=O)CC2O)c1=O (some centres not stated) | 0.366 µM | 17 µM | 0.331 µM | 4.89 µM | 0.554 µM | 14.9 µM | 0.258 µM | 7.06 µM | 0.509 µM | 18.6 µM | 0.233 µM | 26 µM | 0.284 µM | 14.1 µM | 0.386 µM | 4.09 µM | 2.35 µM | 23.3 µM | 5.62 µM | > 91.5 µM
Cc1cc(-c2cc(OC(=O)c3ccccc3)ccc2Cl)cc2nnc(Nc3ccc(OCCN4CCCC4)cc3)nc12 | 0.186 µM | 0.403 µM | 1.45 µM | 2.79 µM | 1.86 µM | 3.37 µM | 1.35 µM | 2.63 µM | 0.303 µM | 1.69 µM | 1.65 µM | 3.16 µM | 1.6 µM | 2.97 µM | 1.89 µM | 3.5 µM | 1.5 µM | 2.84 µM | 1.16 µM | 2.47 µM
COc1c(B(O)O)cccc1-c1nc2c(F)cc3n[nH]c(C)c3c2c2c1CCCC2 | 1.43 µM | > 50 µM | 1.28 µM | > 40.6 µM | 1.17 µM | > 50 µM | 0.534 µM | > 50 µM | 0.0117 µM | 2.57 µM | 2.71 µM | > 42.1 µM | 1.48 µM | > 50 µM | 0.661 µM | 10.5 µM | 1.08 µM | > 50 µM | 1.46 µM | > 50 µM
COc1cc2c(cc1-c1coc3cc(O)ccc3c1=O)OCO2 | – | 90.9 µM | – | 38.9 µM | – | 43.1 µM | – | 40.9 µM | – | 67.6 µM | – | 44.3 µM | – | > 100 µM | – | 29.9 µM | – | > 100 µM | – | > 100 µM
O=C(N/N=C/c1ccncc1)c1ccc(F)cc1 | > 40 µM | > 40 µM | > 40 µM | > 40 µM | > 40 µM | > 40 µM | > 40 µM | > 40 µM | > 40 µM | > 40 µM | > 40 µM | > 40 µM | > 40 µM | > 40 µM | > 40 µM | > 40 µM | > 40 µM | > 40 µM | > 40 µM | > 40 µM
CCOc1ccc2c(c1)C(=O)c1c-2n(CCCN=[N+]=[N-])c(=O)c2cc([N+](=O)[O-])ccc12 | 0.0261 µM | 6.4 µM | 4.16 µM | 74.4 µM | 4.14 µM | 85.5 µM | 2.02 µM | 9.32 µM | 7.95 µM | 46.7 µM | 18.9 µM | > 100 µM | 20 µM | > 100 µM | 4.1 µM | 22.7 µM | 6.07 µM | > 100 µM | 15.1 µM | > 100 µM
COc1ncc(-c2ccc3nccc(C#CCCCCC(=O)NO)c3c2)cc1NS(=O)(=O)c1ccc(F)cc1F | 0.0186 µM | 4.45 µM | 0.0701 µM | 2.03 µM | 0.147 µM | 5.98 µM | 0.111 µM | 12.3 µM | 0.0156 µM | 0.106 µM | 1.72 µM | 14.1 µM | 0.0651 µM | 2.52 µM | 0.0819 µM | 3.68 µM | 0.0634 µM | 8.2 µM | 0.0545 µM | 4.8 µM
COc1cc(N2CCC(N)CC2)ccc1Nc1ncc(Cl)c(-c2c[nH]c3ccccc23)n1 | 0.0283 µM | 1.41 µM | 1.54 µM | 3.31 µM | 1.38 µM | 4.19 µM | 0.292 µM | 1.94 µM | 0.035 µM | 0.345 µM | 0.235 µM | 3.66 µM | 1.14 µM | 3.71 µM | 0.546 µM | 1.95 µM | 0.137 µM | 2.11 µM | 1 µM | 3.63 µM
COC(=O)[C@]12CC[C@@H](C)[C@H](C)[C@@H]1C1=CC[C@@H]3[C@@](C)(CC#N)C4=C(C[C@@]3(C)[C@]1(C)CC2)OC[C@]4(C)C=O | 3.05 µM | 11.4 µM | 13.2 µM | 40.6 µM | 3.77 µM | > 100 µM | 6.42 µM | > 100 µM | 4.53 µM | 34.7 µM | 4.15 µM | > 100 µM | 3.41 µM | 12.2 µM | 11.6 µM | 71.1 µM | 14.1 µM | 35.8 µM | 3.31 µM | 73.7 µM
Cc1cnc(-c2ccc(-c3ccc(NC(=O)Nc4c(F)cc(F)cc4F)cc3F)c3c2C(=O)NC3)[nH]1 | 0.141 µM and 0.41 µM | 6.53 µM and 12.8 µM | – | 18.8 µM and 18.4 µM | 2 µM and 2.51 µM | 14.4 µM and 15.5 µM | 2.55 µM and 1.35 µM | > 100 µM and 28.6 µM | 1.31 µM and 2.01 µM | 6.37 µM and 12.1 µM | 1.44 µM | 3.2 µM | 1.38 µM and 1.51 µM | 2.82 µM and 3.02 µM | 1.25 µM | 2.86 µM | 1.61 µM and 1.56 µM | 13.2 µM and 12.6 µM | 1.41 µM and 2.57 µM | 3.82 µM and 30.1 µM
Nc1cc(N)c2nc(NCCc3ccc(Cl)c(Cl)c3)cnc2c1 | 3.08 µM | 13.3 µM | 15.3 µM | 29.6 µM | 15.8 µM | 30 µM | 14.8 µM | 28 µM | 6.15 µM | 19.5 µM | 1.81 µM | 3.26 µM | 2.05 µM | 5.3 µM | 16.5 µM | 32.9 µM | 20 µM | 34.6 µM | 9.32 µM | 21.3 µM
CC(=O)Nc1cc2c3c(cccc3c1)-c1ccccc1-2 | > 100 µM | > 100 µM | 5.13 µM | 22.6 µM | 40.2 µM | > 100 µM | 19.2 µM | 52.2 µM | 17.8 µM | 44.8 µM | > 100 µM | > 100 µM | 52.2 µM | > 100 µM | 14.2 µM | 40 µM | 16.7 µM | 35.7 µM | 14.8 µM | > 100 µM
COC1C(=O)CCC2(CO2)C1(O)C1(C)OC1CC=C(C)C (configuration not stated) | – | 53 µM | – | > 100 µM | – | > 100 µM | – | > 100 µM | – | > 100 µM | – | > 100 µM | – | > 100 µM | – | > 100 µM | – | > 100 µM | – | > 100 µM
COc1ccc(/C=C\c2cc(OC)c(OC)c(OC)c2)c(NS(=O)(=O)c2ccc(F)cc2)c1O | 0.0483 µM | > 46.3 µM | 0.214 µM | > 45.9 µM | 0.156 µM | > 100 µM | 0.189 µM | 96.9 µM | 0.0723 µM | 16.7 µM | 0.552 µM | > 100 µM | 0.0322 µM | 1.41 µM | 0.294 µM | 47.5 µM | 0.202 µM | > 100 µM | 0.0428 µM | > 70.8 µM
Cn1c(=O)c(Oc2ccc(F)cc2F)cc2cnc(NCC(C)(C)O)nc21 | > 25 µM | > 25 µM | > 25 µM | > 25 µM | > 25 µM | > 25 µM | > 25 µM | > 25 µM | > 25 µM | > 25 µM | > 25 µM | > 25 µM | > 25 µM | > 25 µM | > 25 µM | > 25 µM | > 25 µM | > 25 µM | > 25 µM | > 25 µM
COC(=O)Nc1nc2ccc(C(=O)c3ccc(F)cc3)cc2[nH]1 | 0.0867 µM | > 100 µM | 0.094 µM | 0.966 µM | 0.322 µM | 15.4 µM | 1.05 µM | > 100 µM | 4.81 µM | 50.3 µM | 1.21 µM | > 100 µM | 0.0517 µM | 0.211 µM | 0.578 µM | 7.83 µM | 2.45 µM | > 100 µM | 0.226 µM | > 100 µM
Cc1[nH]nc(C(=O)N/N=C/c2ccccc2Cl)c1N=NN(C)C | – | > 100 µM | – | > 100 µM | – | > 100 µM | – | > 100 µM | – | > 100 µM | – | > 100 µM | – | > 100 µM | – | > 100 µM | – | > 100 µM | – | > 100 µM
CCCCCCCCCC[C@H](O)[C@H]1CC[C@@H]([C@@H](O)CC[C@H](O)[C@@H]2CCC(CCCCCCC[C@@H](O)CC3=C[C@H](C)OC3=O)O2)O1 (some centres not stated) | 3 µM | 9.6 µM and 22.9 µM | 1.22 µM | 15 µM | – | 4.71 µM and 19.6 µM | 2.15 µM | 4.47 µM and 15.7 µM | 1.99 µM | 4.34 µM and 16 µM | – | 19.6 µM | 3.29 µM | 2.75 µM and 14.2 µM | 4.9 µM | 3.64 µM and 20.7 µM | 12 µM | 28.4 µM | 4.66 µM | 3.44 µM and 17.2 µM
Nc1c(C(=O)Nc2cccc(C(F)(F)F)c2)sc2nc3c(cc12)CCCCCC3 | 2.44 µM | 11.2 µM | 1.58 µM | 3.6 µM | 3.16 µM | 13.1 µM | 1.85 µM | 4.46 µM | 1.7 µM | 4.86 µM | 1.61 µM | 4 µM | 2.17 µM | 4.88 µM | 1.6 µM | 3.12 µM | 3.29 µM | 13.7 µM | 4.31 µM | 32.7 µM
